Measured values from PMC9964746, “Mechanism of Action and Structure–Activity Relationships of Tetracyclic Small Molecules Acting as Universal Positive Allosteric Modulators of the Cholecystokinin Receptor” (Membranes, 2023).
Several values for one entry are separate records, joined by “and”; a condition that tells them apart may be missing. Equal entries are not always repeated.

Tests used:
Format in all cases: cell-based
[1] = biological target: T1, vasopressin-2 receptor (AVP2R) (Homo sapiens, UniProt P30518); experiment: AVP2R cAMP HTRF accumulation assay; conditions: CHO-K1 AVP2R cells; for AVP2R PAM (cAMP) Score (activity score = normalized Emax × pEC50): PAM format; for EC50 / Emax: PAM format with vasopressin, original hits: agonist and PAM data combined, average ± SD
T1 construct: expressed in transfected cells; host or cells: CHO-K1 (PAM format); HEK-293 (agonist format)
Procedure: Possible off-target biological effects. […] Here, we tested them at the vasopressin-2 receptor (AVP2R), representing a class A GPCR structurally related to CCK1R, which is coupled to Gs. The activity at AVP2R was tested using AVP2R-overexpressing CHO-K1 (PAM format) or HEK-293 (agonist format) cells, stimulating the cells with vasopressin. Original hits were tested in both agonist and PAM formats. Since all recognized compound responses were present in both formats, we continued to screen analogs in only the PAM format (also able to capture agonist effects) in CHO-K1 AVP2R cells for potential enhanced sensitivity. The dose–response data sets for original hits were combined, as the PAM and agonist effects were indistinguishable. In brief, arginine vasopressin (AVP) orthosteric stimulator dilutions and ligand and compound dose–response titrations in DMSO were transferred onto a 1536-well plate (Corning #3725) using an Echo liquid handler (Labcyte). Thawed cryopreserved cell stocks were diluted in stimulation buffer consisting of HBSS (Hank’s Balanced Salt Solution with Ca^2+ and Mg^2+, Gibco #24020117), 5 mM HEPES (hydroxyethyl piperazineethanesulfonic acid), 0.5 mM IBMX (3-isobutyl-1-methylxanthine, Sigma-Aldrich), and 0.075% BSA (7.5% DTPA-purified bovine serum albumin, PerkinElmer). The resulting cell suspension was added to the microplate and incubated with test compounds at room temperature for 30 min. Then, the detection reagents from the Cisbio cAMP Gs Dynamic HTRF detection kit were added. The plate was kept at room temperature for 30 min and read on a PHERAstar FSX microplate reader. Dose–response curves were performed as 16-point 2-fold dilutions in duplicate in at least two independent experiments.

[2] = biological target: T2, CCK1R (Homo sapiens, UniProt P32238); experiment: IP-One accumulation TR-FRET assay, PAM format, HEK-293 CCK1R cells; parameters: expressed in transfected cells; host or cells: HEK-293; conditions: for Emax: HEK293, relative to CCK control; for Emax / CCK1R PAM (IP-One) Score (activity score = normalized Emax × pEC50) / EC50: HEK-293 CCK1R cells; for Emax / CCK1R PAM (IP-One) Score (activity score = normalized Emax × pEC50): PAM format; for Emax / EC50: average ± SD; for EC50: PAM format with EC20 CCK; for CCK1R IP-One activity (in words): PAM and agonist formats
T2 sequence (P32238 1-428): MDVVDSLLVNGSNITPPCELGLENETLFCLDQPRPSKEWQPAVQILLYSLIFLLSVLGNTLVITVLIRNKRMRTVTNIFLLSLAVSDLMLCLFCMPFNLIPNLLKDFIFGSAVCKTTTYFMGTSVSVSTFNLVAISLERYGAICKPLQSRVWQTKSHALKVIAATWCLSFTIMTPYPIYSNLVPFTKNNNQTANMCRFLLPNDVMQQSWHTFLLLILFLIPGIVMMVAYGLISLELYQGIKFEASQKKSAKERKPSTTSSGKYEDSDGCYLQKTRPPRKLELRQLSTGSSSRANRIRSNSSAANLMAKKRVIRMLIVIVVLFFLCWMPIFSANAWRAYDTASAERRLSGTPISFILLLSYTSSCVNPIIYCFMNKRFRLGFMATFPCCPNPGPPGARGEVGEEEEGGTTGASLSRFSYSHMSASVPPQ
Procedure: (§1) For structure–activity relationship studies, we performed myo-inositol-1-phosphate (IP-One) accumulation assays with TR-FRET technology applied to the HEK-293 cell line overexpressing CCK1Rs, as we had described in our high throughput screening effort. In brief, thawed cryopreserved cell stocks were re-suspended in IP-One assay media consisting of phenol-red free DMEM (Corning, Corning, NY, USA, #17-205-CV) with 10% FBS, 1% penicillin (10,000 units)/streptomycin (10 mg) (Pen/Strep, Thermo Fisher Scientific, Waltham, MA, USA, Gibco #15140122), and 1% L-glutamine (200 mM) (Gibco #25030081) and diluted to required cell densities. Then, the cell suspension was dispensed into a 1536-well tissue culture microplate (Corning, #3727), and the plate was incubated overnight at 37 °C and 5% CO^2. After 16–20 h, DMSO or compounds were added with an Echo liquid handler (Labcyte, San Jose, CA, USA), resulting in a top final compound concentration of 50 µM diluted 2-fold for 16-point dose–responses. For the positive allosteric modulator (PAM) format, orthosteric stimulator (CCK) dilutions for control wells were prepared in assay media containing 150 mM lithium chloride (LiCl, 50 mM final, Sigma-Aldrich, St Louis, MO, USA, #L7026). After a 30 min incubation of test compounds at 37 °C and 5% CO2, orthosteric stimulator dilutions (for PAM format) or equivalent dilutions of DMSO (for agonist format) were added to designated wells using BioRaptr (Beckman Coulter, Brea, CA, USA). In addition, CCK control ligand dilutions were included on each test plate. After that, the plate was incubated for 1 h at 37 °C and 5% CO^2 and equilibrated to room temperature. Detection reagents from the IP-One Gq detection kit from Cisbio (Cisbio US Inc., Bedford, MA, USA, #62IPAPEJ) were added, and after 1 h at RT, IP-One content was measured with a PHERAstar FSX microplate reader (BMG Labtech, Ortenberg, Germany). Control ligand dose–responses were analyzed using GraphPad Prism 9.3.1 (San Diego, CA, USA) to validate adequate control and test well concentrations for positive allosteric modulation (PAM) and agonist formats. Dose–response curves were performed as 16-point 2-fold dilutions in duplicates in at least three independent experiments. Large data sets were uploaded and analyzed with CBIS (Chemical and Biology Information System software, ChemInnovation Software, Inc., San Diego, CA, USA). Further data analysis for detailed SAR studies was conducted using the D360 software (Certara).
(§2) The potency and efficacy data for these compounds were used to calculate their activity scores using the following formula: Activity Score = normalized Emax × pEC50. Normalized Emax represents the efficacy of the compound as a fractional response relative to that of the CCK control ligand. pEC50 represents the positive logarithmic value of compound EC50 concentrations in (M).

[3] = biological target: T2, CCK1R; experiment: IP-One accumulation TR-FRET assay, agonist format, HEK-293 CCK1R cells; parameters: expressed in transfected cells; host or cells: HEK-293; conditions: for Emax: HEK293, relative to CCK control, read-out: CCK1R Ago (IP-One) Emax
Procedure: as §1, §2

T1 sequence (P30518 whole entry): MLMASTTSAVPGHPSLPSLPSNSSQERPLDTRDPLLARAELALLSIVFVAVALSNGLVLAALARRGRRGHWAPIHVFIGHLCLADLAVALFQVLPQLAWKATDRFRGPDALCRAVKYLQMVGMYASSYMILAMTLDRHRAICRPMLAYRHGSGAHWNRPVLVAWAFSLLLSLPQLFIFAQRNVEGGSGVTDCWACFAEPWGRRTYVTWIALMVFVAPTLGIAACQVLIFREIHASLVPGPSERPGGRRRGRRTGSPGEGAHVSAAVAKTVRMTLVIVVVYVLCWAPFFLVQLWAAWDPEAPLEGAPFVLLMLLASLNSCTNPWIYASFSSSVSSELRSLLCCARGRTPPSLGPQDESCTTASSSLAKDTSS

| Compound | AVP2R PAM (cAMP) Score (activity score = normalized Emax × pEC50) [1] | EC50 [1] [µM] | Emax [1] [%] | Emax [2] [%] | CCK1R PAM (IP-One) Score (activity score = normalized Emax × pEC50) [2] | EC50 [2] [µM] | CCK1R Ago (IP-One) Score (activity score = normalized Emax × pEC50) [3] | Emax ([3]; average ± SD) [%] | CCK1R IP-One activity (in words) [2] | EC50 ([3]; average ± SD, read-out: CCK1R Ago (IP-One) EC50) [µM] |
| --- | --- | --- | --- | --- | --- | --- | --- | --- | --- | --- |
| CCCc1nc2sc3c(NCCCN(C)C)ncnc3c2c2c1CCCC2 [CMP-18] | 2.0 and 1.99 | 11.8 ± 14 | 40 ± 17 | 43 ± 21 | 2.0 and 1.96 | 12.7 ± 5.5 | 0 |  |  |  |
| C=CCNc1ncnc2c1sc1nc(N3CCOCC3)c3c(c12)CCCC3 [CMP-50] | 0 |  | 0 | 0 | 0 |  | 0 | 0 | None of these analogs showed any CCK1R activity |  |
| CN(C)CCCNc1nnnc2c1sc1nc(N3CCCCC3)c3c(c12)CCCC3 [CMP-23] | 2.9 and 2.93 | 3.1 ± 1.3 | 53 ± 3 | 38 ± 13 | 1.86 | 9.6 ± 3.6 | 1.85 | 41 ± 1 |  | 30 ± 4.9 |
| NNc1ncnc2c1sc1nc(N3CCOCC3)c3c(c12)CCCC3 [CMP-51] | 0 |  | 0 | 0 | 0 |  | 0 | 0 | significantly diminished responses |  |
| CCCc1nc2sc3c(NCCCO)ncnc3c2c2c1CCC2 [CMP-56] | 0 |  | 0 |  |  |  | 0 | 0 |  |  |
| CCCc1nc2oc3c(N(C)CCO)ncnc3c2c2c1CCCC2 [CMP-39] | 0 |  | 0 |  |  |  | 0 | 0 |  |  |
| CCCCNc1ncnc2c1sc1nc(CCC)c3c(c12)CCCC3 [CMP-57] | 0 |  | 0 |  |  |  | 0 | 0 |  |  |

Other lines, results leading:

| AVP2R PAM (cAMP) Score (activity score = normalized Emax × pEC50) [1] | EC50 [1] [µM] | Emax [1] [%] | Emax [2] [%] | CCK1R PAM (IP-One) Score (activity score = normalized Emax × pEC50) [2] | EC50 [2] [µM] | CCK1R Ago (IP-One) Score (activity score = normalized Emax × pEC50) [3] | Emax ([3]; average ± SD) [%] | CCK1R IP-One activity (in words) [2] | EC50 ([3]; average ± SD, read-out: CCK1R Ago (IP-One) EC50) [µM] | Compound |
| --- | --- | --- | --- | --- | --- | --- | --- | --- | --- | --- |
| 1.26 | 5.4 ± 1.7 | 24 ± 3 | 35 ± 14 | 1.5 and 1.54 | 29.6 ± 1.8 | 0 | 0 |  |  | CN1CCN(c2ncnc3c2sc2nc(N4CCCCC4)c4c(c23)CCCC4)CC1 [CMP-31] |
| 2.13 | 7.8 ± 4 | 42 ± 17 | 34 ± 13 | 1.50 | 29 ± 13.1 | 0 |  |  |  | CC(C)Cc1nc2sc3c(NCCN4CCOCC4)ncnc3c2c2c1CCCC2 [CMP-34] |
| 0.93 | 22.3 ± 7.2 | 20 |  |  |  | 0 | 0 | displayed no effects |  | CC(Sc1ncnc2c1sc1nc(N3CCOCC3)c3c(c12)CCCC3)C(=O)O (stereo not drawn) [CMP-59] |
| 2.3 and 2.31 | 15.7 ± 8.4 | 48 ± 12 | 53 ± 1 | 2.34 | 37.8 ± 3.9 | 0 |  |  |  | CCCc1nc2sc3c(NCCN4CCOCC4)ncnc3c2c2c1CCCC2 [CMP-8] |
|  |  |  |  |  |  | 0 | 0 | showed no agonist or PAM activity |  | CN(C)CCCNc1ncnc2c1sc1nc(N3CCOCC3)c3c(c12)CCC3 [CMP-43] |
|  |  |  | 0 | 0 |  | 0 | 0 | displayed no effects |  | Sc1nnnc2c1sc1nc(N3CCOCC3)c3c(c12)CCCC3 [CMP-52] |
|  |  |  | 51 ± 43 | 1.9 and 1.94 | 18.2 ± 8.6 | 0 | 0 |  |  | CN1CCN(c2ncnc3c2sc2nc(N4CCOCC4)c4c(c23)CCCC4)CC1 [CMP-19] |
| 0 |  | 0 |  |  |  | 0 | 0 |  |  | CCCc1nc2oc3c(NCCCO)ncnc3c2c2c1CCCC2 [CMP-58] |
